From ChEMBL document CHEMBL5108010, “Structure-activity relationship studies on divalent naphthalene diimide G quadruplex ligands with anticancer and antiparasitic activity” (Bioorg Med Chem, 2022)

Tested on: not listed separately
Assay: Cytotoxicity against human MRC5 cells assessed as inhibition of cell proliferation incubated for 72 hrs by alamar blue assay
Assay type: toxicity, cell-based
Settings: human, MRC5 cells
Compound `C[n+]1cccc2cc(N3C(=O)c4ccc5c6c(ccc(c46)C3=O)C(=O)N(c3ccc4c(ccc[n+]4C)c3)C5=O)ccc21` has an IC50 at 72 h of 1.15 µM.
With `CC(CCN1C(=O)c2ccc3c4c(ccc(c24)C1=O)C(=O)N(CCC(C)N1CCN(C)CC1)C3=O)N1CCN(C)CC1` (stereo not drawn) the IC50 at 72 h was 1.24 µM.
In the case of `O=C1c2ccc3c4c(ccc(c24)C(=O)N1CC(c1ccccn1)N1CCOCC1)C(=O)N(CC(c1ccccn1)N1CCOCC1)C3=O` (stereo not drawn), the IC50 at 72 h is reported as 83.1 µM.
With `C[n+]1ccc(N2C(=O)c3ccc4c5c(ccc(c35)C2=O)C(=O)N(c2cc[n+](C)cc2)C4=O)cc1` the IC50 at 72 h was > 63.9 µM.
Work on `O=C1c2ccc3c4c(ccc(c24)C(=O)N1c1ccccc1N1CCOCC1)C(=O)N(c1ccccc1N1CCOCC1)C3=O` yielded an IC50 at 72 h of 7.25 µM.

Tested on: not listed separately
Assay: Selectivity index, ratio of IC50 for cytotoxicity against human MRC5 cells to IC50 for antitrypanosomal activity against Trypanosoma brucei bloodstream form
Assay type: toxicity, cell-based
Settings: MRC5 cells versus Trypanosoma brucei bloodstream form, read-out: Ratio IC50
In the case of `C[n+]1cccc2cc(N3C(=O)c4ccc5c6c(ccc(c46)C3=O)C(=O)N(c3ccc4c(ccc[n+]4C)c3)C5=O)ccc21`, the selectivity ratio is reported as 0.3.
With `CC(CCN1C(=O)c2ccc3c4c(ccc(c24)C1=O)C(=O)N(CCC(C)N1CCN(C)CC1)C3=O)N1CCN(C)CC1` (stereo not drawn) the selectivity ratio was 9.5.
For `O=C1c2ccc3c4c(ccc(c24)C(=O)N1CC(c1ccccn1)N1CCOCC1)C(=O)N(CC(c1ccccn1)N1CCOCC1)C3=O` (stereo not drawn), the selectivity ratio was 1.6.
For `C[n+]1ccc(N2C(=O)c3ccc4c5c(ccc(c35)C2=O)C(=O)N(c2cc[n+](C)cc2)C4=O)cc1`, the selectivity ratio was > 1.31.
With `O=C1c2ccc3c4c(ccc(c24)C(=O)N1c1ccccc1N1CCOCC1)C(=O)N(c1ccccc1N1CCOCC1)C3=O` the selectivity ratio was 41.9.

Tested on: Quadruplex DNA
Assay: Binding affinity to G-quadruplex telomeric DNA F21T (5'-duplex GGG TTAGGG TTAGGG TTAGGG-3') (unknown origin) assessed as stabilization by measuring change in melting temperature at 10 uM in potassium buffer by FRET melting assay
Assay type: nucleic-acid assay
Settings: not given
With `C[n+]1cccc2cc(N3C(=O)c4ccc5c6c(ccc(c46)C3=O)C(=O)N(c3ccc4c(ccc[n+]4C)c3)C5=O)ccc21` the ΔTm was 4.6 °C.
Work on `CC(CCN1C(=O)c2ccc3c4c(ccc(c24)C1=O)C(=O)N(CCC(C)N1CCN(C)CC1)C3=O)N1CCN(C)CC1` (stereo not drawn) yielded a ΔTm of 28.5 °C.
Compound `O=C1c2ccc3c4c(ccc(c24)C(=O)N1CC(c1ccccn1)N1CCOCC1)C(=O)N(CC(c1ccccn1)N1CCOCC1)C3=O` (stereo not drawn) has a ΔTm of 0.1 °C.
`C[n+]1ccc(N2C(=O)c3ccc4c5c(ccc(c35)C2=O)C(=O)N(c2cc[n+](C)cc2)C4=O)cc1` showed a ΔTm of -0.4 °C.

Tested on: Trypanosoma brucei
Assay: Antitrypanosomal activity against Trypanosoma brucei bloodstream form assessed as inhibition of parasite growth incubated for 72 hrs by alamar blue assay
Assay type: functional, organism-based
Settings: Trypanosoma brucei, 72 h
For `C[n+]1cccc2cc(N3C(=O)c4ccc5c6c(ccc(c46)C3=O)C(=O)N(c3ccc4c(ccc[n+]4C)c3)C5=O)ccc21`, the IC50 was 3.71 µM.
Compound `CC(CCN1C(=O)c2ccc3c4c(ccc(c24)C1=O)C(=O)N(CCC(C)N1CCN(C)CC1)C3=O)N1CCN(C)CC1` (stereo not drawn) has an IC50 of 0.13 µM.
For `O=C1c2ccc3c4c(ccc(c24)C(=O)N1CC(c1ccccn1)N1CCOCC1)C(=O)N(CC(c1ccccn1)N1CCOCC1)C3=O` (stereo not drawn), the IC50 was 51.7 µM.
`C[n+]1ccc(N2C(=O)c3ccc4c5c(ccc(c35)C2=O)C(=O)N(c2cc[n+](C)cc2)C4=O)cc1` showed an IC50 of 48.7 µM.
In the case of `O=C1c2ccc3c4c(ccc(c24)C(=O)N1c1ccccc1N1CCOCC1)C(=O)N(c1ccccc1N1CCOCC1)C3=O`, the IC50 is reported as 0.17 µM.

Tested on: Quadruplex DNA
Assay: Binding affinity to G-quadruplex telomeric DNA F21T (5'-duplex GGG TTAGGG TTAGGG TTAGGG-3') (unknown origin) assessed as stabilization by measuring change in melting temperature at 10 uM in sodium buffer by FRET melting assay
Assay type: nucleic-acid assay
Settings: not given
`C[n+]1cccc2cc(N3C(=O)c4ccc5c6c(ccc(c46)C3=O)C(=O)N(c3ccc4c(ccc[n+]4C)c3)C5=O)ccc21` gave a ΔTm of 3.5 °C.
With `CC(CCN1C(=O)c2ccc3c4c(ccc(c24)C1=O)C(=O)N(CCC(C)N1CCN(C)CC1)C3=O)N1CCN(C)CC1` (stereo not drawn) the ΔTm was 18.8 °C.
Compound `O=C1c2ccc3c4c(ccc(c24)C(=O)N1CC(c1ccccn1)N1CCOCC1)C(=O)N(CC(c1ccccn1)N1CCOCC1)C3=O` (stereo not drawn) has a ΔTm of 0.9 °C.
With `C[n+]1ccc(N2C(=O)c3ccc4c5c(ccc(c35)C2=O)C(=O)N(c2cc[n+](C)cc2)C4=O)cc1` the ΔTm was 0 °C.

Tested on: Leishmania major
Assay: Antileishmanial activity against Leishmania major (MHOM/IL/80/Friedlin) promastigotes assessed as inhibition of parasite growth incubated for 72 hrs by MTT assay
Assay type: functional, organism-based
Settings: Leishmania major, MHOM/IL/80/Friedlin, 72 h
With `C[n+]1cccc2cc(N3C(=O)c4ccc5c6c(ccc(c46)C3=O)C(=O)N(c3ccc4c(ccc[n+]4C)c3)C5=O)ccc21` the IC50 was 16.8 µM.
For `CC(CCN1C(=O)c2ccc3c4c(ccc(c24)C1=O)C(=O)N(CCC(C)N1CCN(C)CC1)C3=O)N1CCN(C)CC1` (stereo not drawn), the IC50 was 0.24 µM.
With `O=C1c2ccc3c4c(ccc(c24)C(=O)N1CC(c1ccccn1)N1CCOCC1)C(=O)N(CC(c1ccccn1)N1CCOCC1)C3=O` (stereo not drawn) the IC50 was > 100 µM.
For `C[n+]1ccc(N2C(=O)c3ccc4c5c(ccc(c35)C2=O)C(=O)N(c2cc[n+](C)cc2)C4=O)cc1`, the IC50 was > 63.9 µM.
For `O=C1c2ccc3c4c(ccc(c24)C(=O)N1c1ccccc1N1CCOCC1)C(=O)N(c1ccccc1N1CCOCC1)C3=O`, the IC50 was 9.04 µM.

Tested on: not listed separately
Assay: Selectivity index, ratio of IC50 for cytotoxicity against human MRC5 cells to IC50 for cytotoxicity against human HeLa cells
Assay type: toxicity, cell-based
Settings: MRC5 cells versus HeLa cells, read-out: Ratio IC50
With `C[n+]1cccc2cc(N3C(=O)c4ccc5c6c(ccc(c46)C3=O)C(=O)N(c3ccc4c(ccc[n+]4C)c3)C5=O)ccc21` the selectivity ratio was 0.031.
In the case of `CC(CCN1C(=O)c2ccc3c4c(ccc(c24)C1=O)C(=O)N(CCC(C)N1CCN(C)CC1)C3=O)N1CCN(C)CC1` (stereo not drawn), the selectivity ratio is reported as 3.54.
Compound `O=C1c2ccc3c4c(ccc(c24)C(=O)N1CC(c1ccccn1)N1CCOCC1)C(=O)N(CC(c1ccccn1)N1CCOCC1)C3=O` (stereo not drawn) has a selectivity ratio of 0.85.
Compound `O=C1c2ccc3c4c(ccc(c24)C(=O)N1c1ccccc1N1CCOCC1)C(=O)N(c1ccccc1N1CCOCC1)C3=O` has a selectivity ratio of 2.34.

Tested on: not listed separately
Assay: Binding affinity to hairpin duplex DNA F10T (unknown origin) assessed as stabilization by measuring change in melting temperature at 10 uM in potassium buffer by FRET melting assay
Settings: not given
In the case of `C[n+]1cccc2cc(N3C(=O)c4ccc5c6c(ccc(c46)C3=O)C(=O)N(c3ccc4c(ccc[n+]4C)c3)C5=O)ccc21`, the ΔTm is reported as 1.4 °C.
With `CC(CCN1C(=O)c2ccc3c4c(ccc(c24)C1=O)C(=O)N(CCC(C)N1CCN(C)CC1)C3=O)N1CCN(C)CC1` (stereo not drawn) the ΔTm was 4.5 °C.
`O=C1c2ccc3c4c(ccc(c24)C(=O)N1CC(c1ccccn1)N1CCOCC1)C(=O)N(CC(c1ccccn1)N1CCOCC1)C3=O` (stereo not drawn) showed a ΔTm of 0.3 °C.
For `C[n+]1ccc(N2C(=O)c3ccc4c5c(ccc(c35)C2=O)C(=O)N(c2cc[n+](C)cc2)C4=O)cc1`, the ΔTm was -0.2 °C.

Tested on: HeLa
Assay: Cytotoxicity against human HeLa cells assessed as inhibition of cell proliferation incubated for 72 hrs by alamar blue assay
Assay type: functional, cell-based
Settings: Homo sapiens, HeLa, 72 h
`C[n+]1cccc2cc(N3C(=O)c4ccc5c6c(ccc(c46)C3=O)C(=O)N(c3ccc4c(ccc[n+]4C)c3)C5=O)ccc21` gave an IC50 of 37 µM.
`CC(CCN1C(=O)c2ccc3c4c(ccc(c24)C1=O)C(=O)N(CCC(C)N1CCN(C)CC1)C3=O)N1CCN(C)CC1` (stereo not drawn) gave an IC50 of 0.35 µM.
For `O=C1c2ccc3c4c(ccc(c24)C(=O)N1CC(c1ccccn1)N1CCOCC1)C(=O)N(CC(c1ccccn1)N1CCOCC1)C3=O` (stereo not drawn), the IC50 was 96.9 µM.
For `C[n+]1ccc(N2C(=O)c3ccc4c5c(ccc(c35)C2=O)C(=O)N(c2cc[n+](C)cc2)C4=O)cc1`, the IC50 was > 63.9 µM.
In the case of `O=C1c2ccc3c4c(ccc(c24)C(=O)N1c1ccccc1N1CCOCC1)C(=O)N(c1ccccc1N1CCOCC1)C3=O`, the IC50 is reported as 3.09 µM.

Tested on: Quadruplex DNA
Assay: Binding affinity to G-quadruplex telomeric DNA FMycT (5'-duplex GGG TTAGGG TTAGGG TTAGGG-3') (unknown origin) assessed as stabilization by measuring change in melting temperature at 10 uM in potassium buffer by FRET melting assay
Assay type: nucleic-acid assay
Settings: not given
Work on `C[n+]1cccc2cc(N3C(=O)c4ccc5c6c(ccc(c46)C3=O)C(=O)N(c3ccc4c(ccc[n+]4C)c3)C5=O)ccc21` yielded a ΔTm of 11 °C.
For `CC(CCN1C(=O)c2ccc3c4c(ccc(c24)C1=O)C(=O)N(CCC(C)N1CCN(C)CC1)C3=O)N1CCN(C)CC1` (stereo not drawn), the ΔTm was 22 °C.
`O=C1c2ccc3c4c(ccc(c24)C(=O)N1CC(c1ccccn1)N1CCOCC1)C(=O)N(CC(c1ccccn1)N1CCOCC1)C3=O` (stereo not drawn) showed a ΔTm of 0.1 °C.
`C[n+]1ccc(N2C(=O)c3ccc4c5c(ccc(c35)C2=O)C(=O)N(c2cc[n+](C)cc2)C4=O)cc1` gave a ΔTm of -3.5 °C.

Tested on: not listed separately
Assay: Selectivity index, ratio of IC50 for cytotoxicity against human MRC5 cells to IC50 for antileishmanial activity against Leishmania major (MHOM/IL/80/Friedlin) promastigotes
Assay type: toxicity, cell-based
Settings: read-out: Ratio IC50
In the case of `C[n+]1cccc2cc(N3C(=O)c4ccc5c6c(ccc(c46)C3=O)C(=O)N(c3ccc4c(ccc[n+]4C)c3)C5=O)ccc21`, the selectivity ratio is reported as 0.068.
Work on `CC(CCN1C(=O)c2ccc3c4c(ccc(c24)C1=O)C(=O)N(CCC(C)N1CCN(C)CC1)C3=O)N1CCN(C)CC1` (stereo not drawn) yielded a selectivity ratio of 5.17.
In the case of `O=C1c2ccc3c4c(ccc(c24)C(=O)N1CC(c1ccccn1)N1CCOCC1)C(=O)N(CC(c1ccccn1)N1CCOCC1)C3=O` (stereo not drawn), the selectivity ratio is reported as < 0.83.
With `O=C1c2ccc3c4c(ccc(c24)C(=O)N1c1ccccc1N1CCOCC1)C(=O)N(c1ccccc1N1CCOCC1)C3=O` the selectivity ratio was 0.8.

Tested on: Quadruplex DNA
Assay: Binding affinity to Trypanosoma brucei G-quadruplex telomeric DNA FEBR1T (5'-duplex GGG TTAGGG TTAGGG TTAGGG-3') assessed as stabilization by measuring change in melting temperature at 10 uM in potassium buffer by FRET melting assay
Assay type: nucleic-acid assay
Settings: not given
Work on `C[n+]1cccc2cc(N3C(=O)c4ccc5c6c(ccc(c46)C3=O)C(=O)N(c3ccc4c(ccc[n+]4C)c3)C5=O)ccc21` yielded a ΔTm of 2.5 °C.
Work on `CC(CCN1C(=O)c2ccc3c4c(ccc(c24)C1=O)C(=O)N(CCC(C)N1CCN(C)CC1)C3=O)N1CCN(C)CC1` (stereo not drawn) yielded a ΔTm of 24.8 °C.
Compound `O=C1c2ccc3c4c(ccc(c24)C(=O)N1CC(c1ccccn1)N1CCOCC1)C(=O)N(CC(c1ccccn1)N1CCOCC1)C3=O` (stereo not drawn) has a ΔTm of 0.7 °C.
With `C[n+]1ccc(N2C(=O)c3ccc4c5c(ccc(c35)C2=O)C(=O)N(c2cc[n+](C)cc2)C4=O)cc1` the ΔTm was -0.5 °C.
